For assay [1] the following is noted: cited from earlier work.
Assay [2] has as its system Patient B4 cells (HER2 overexpressing breast cancer). Description: CELx Pathway Shutdown test, impedance biosensor CReMS, EGF stimulation. The assay is classed as cell-based, human. The source says:
(§1) CReM and microplate: A 4″×6″, 96-well impedance microplate was placed into a Roche Applied Science (Indianapolis, Ind.) xCELLigence SP impedance biosensor designed to maintain constant voltage while measuring simultaneously the impedance of every well. The change in impedance for a particular well is proportional to the number of cells and type of attachment the cells have with the impedance microplate. Changes in impedance indicate a response to perturbation of these small cell populations.
(§2) Cells: Cells from Patient B1 and B4 were utilized. […] Prior to addition to the impedance microplate, the cells were removed from their growth container with versene, counted, and re-suspended in media without serum or other growth factors.
(§3) Buffers and reagents: Standard media, serum, antibiotics (e.g. penicillin, streptomycin), and other buffers were purchased and used as delivered from ATCC (Manassas, Va., USA) or Life Technologies (Grand Island, N.Y.). Additional growth factor (mature human EGF ca6KDa) was purchased from R&D Systems (Minneapolis, Minn.) and prepared in buffered cell media without growth factors or serum.
(§4) Procedure: Between 6,000-12,000 cells in each well were seeded onto the impedance microplate containing 120 uL standard media with serum. The solution was replaced with media containing no serum to synchronize the cells with respect to physiologic state and pathway stimulation. Twenty microliters of drugs were added to the no-serum media two hours in advance of pathway stimulation.

In assay [3] the test system is Patient B1 cells (HER2 overexpressing breast cancer). The assay is described as above. The assay is classed as cell-based, human.
Text: as §1, §2, §3, §4

Assay [4] deals with Patient B2 breast cancer cells. As to the kind of experiment: CELx Anti-Proliferative test, impedance biosensor CReMS. It counts as cell-based, human. The protocol: (§5) The physiologic change of the B1 and B2 cells during the test was measured with an impedance biosensor CReMS and the output from the CReMS is recorded in FIGS. 2A and 2B. The comparison of the CELx test results and the third party clinical reference is recorded in FIG. 2C.
(§6) CReMS, microplate, reagents, and buffers: The CReMS, microplate, reagents, and buffers used in Example 1 are the same as those employed in Example 2, except for the therapeutic agent tested. […] Paclitaxel was purchased from Selleck Chemicals (TX, USA).
(§7) Cells: Breast Cancer cells from Patients B1 and B2 were utilized and handled in the same manner as described in Example 1.
(§8) Procedure: Between 6,000-12,000 cells in each well were seeded onto the impedance microplate containing 120 uL settling media with serum. […] The CReMS recording of physiologic change was maintained continuously from when the cells were first seeded on the microplate through complete cellular response, which was between 48-72 hours. The test was performed at 37° C., 5% CO2 and at 75% relative humidity.

Assay [5] concerns Patient B1 breast cancer cells. The assay is described as above. The assay is classed as cell-based, human. Here is the method:
as §5, §6, §7, §8

In assay [6] the test system is Patient C2 colon cancer cells. Description: CELx Combination test, impedance biosensor CReMS. The following applies: Patient C2 cells (printed Patient 2), single drug. It counts as cell-based, human.
Method: Cells: Colon cancer cells from Patients C1 and C2 were utilized and handled in the same manner as described in Example 1.
Procedure: Between 6,000-12,000 cells in each well were seeded into the impedance microplate containing 120 uL settling media with serum. The solution was replaced with media containing no serum to synchronize the cells with respect to physiologic state. […] The CReMS recording of physiologic change was maintained continuously from when the cells were first seeded on the microplate through complete cellular response, which was between 48-72 hours. The test was performed at 37° C., 5% CO2 and at 75% relative humidity.
In assay [7] the test system is patient breast cancer cell sample. Description: CELx Pathway Shutdown single drug test (Example 4), impedance biosensor CReMS. The assay is classed as cell-based, human. Conditions: one patient breast cancer cell sample expected to be a responder. The protocol: The physiologic change of the cells and drugs tested was measured with an impedance biosensor CReMS and the summary output from the CReMS is recorded in FIG. 4.
Cells: Cells from Patients B1, B2, B3, B4, B5, B6, B7, C1, C2, L1, and L2 were utilized and handled in the same manner as described in Example 1.
In those experiments involving a combination of drugs, the procedures described in Example 3 were utilized. The list of patient cells and the drug tested with the cells is characterized in FIG. 4.

Where two headings read alike, the source gives them in different places.

With `CS(=O)(=O)CCNCc1ccc(-c2ccc3ncnc(Nc4ccc(OCc5cccc(F)c5)c(Cl)c4)c3c2)o1` [lapatinib, Lapatinib], the “patient responsiveness recorded by clinical reference standard” value in assay [1] (Patient B1) and in assay [1] (Patient B4) was “responsive” each time. Also, the figures for the “CELx test prediction of patient response” value in assay [2] and in assay [3] (Patient B1) were “would respond” and “will respond”, respectively. In addition, the “change (decrease) of cell index of test cells after drug” value in assay [3] (Patient B1 cells, pathway stimulated with receptor ligand (EGF), vs stimulated cells without drug) is “over 50%”.

As to `CC(=O)O[C@H]1C(=O)[C@@]2(C)[C@H]([C@H](OC(=O)c3ccccc3)[C@]3(O)C[C@H](OC(=O)[C@H](O)[C@@H](NC(=O)c4ccccc4)c4ccccc4)C(C)=C1C3(C)C)[C@]1(OC(C)=O)CO[C@@H]1C[C@@H]2O` [paclitaxel, Paclitaxel], the “CELx test prediction of patient response” value in assay [4] (Patient B2) and in assay [5] (Patient B1) was “will respond” in each case. Also, the “time after which the CReM output reverses (test cells begin proliferating, no longer responsive)” value in assay [4] (Patient B2 cells) is on record as “roughly 24 hours”. Besides, the “responsiveness of test cells (decrease in CReM output compared to control cells)” value in assay [4] (Patient B2 cells, continuous recording 48-72 hours) was “initial responsiveness”; in assay [5] (Patient B1 cells, continuous recording 48-72 hours) it was “immediate and continuous responsiveness”.

For the compound `CCc1c2c(nc3ccc(OC(=O)N4CCC(N5CCCCC5)CC4)cc13)-c1cc3c(c(=O)n1C2)COC(=O)[C@]3(O)CC` [irinotecan, Irinotecan], the “responsiveness to the individual drug” value in assay [6] is “responsive”.

Take `COc1cc2ncnc(Nc3ccc(F)c(Cl)c3)c2cc1OCCCN1CCOCC1` [gefitinib]: the “response in the CReMS testing” value in assay [7] was “did not show a response”.

These data come from patent US11073509B2, “Assays and methods for determining the responsiveness of an individual subject to a therapeutic agent” (Celcuity Inc., priority 2013, dated 2021).
